In patent US7026339B2, “Inhibitors of HCV NS5B polymerase” (priority 2003, dated 2006):

System: HuH-7 replicon cells 5–15 and 9–13 (HCV replication)
Assay: Inhibition of viral replication in HuH-7 replicon cells (HCV RNA / GAPDH RNA by multiplex RT-PCR)
Type: cell-based
Conditions: Hepatitis C virus, 72 h; inhibiting 50% of replication; HuH-7 replicon cells, 3 days; read-out: IC50
Description: Compounds were evaluated for inhibition of viral replication according to published procedures (Bartenschlager, R., et. al., Science, 1999, 285, 110) with modifications as follows.
HuH-7 replicon cells 5–15 and 9–13 were cultured in Dulbecco's minimal essential medium (DMEM) containing high glucose and supplemented with 10% fetal bovine serum (FBS), L-glutamine (2 mM), non-essential amino acids (1×), Penicillin (100 IU/mL)/Streptomycin (100 μg/mL) and G418 (Geneticin, 750 μg/mL). Unless otherwise specified, all media components were obtained from Invitrogen. Replicon cell line stocks were maintained as sub-confluent monolayers by passaging every Monday (1:6 split) and Thursday (1:10 split) and incubated at 37° C. with 5% CO2. Tissue culture plates (96-well white clear bottom plates, Corning #3610) were seeded at 7×10^3 cells/well and incubated for 24 hours prior to addition of the compounds.
Compounds in dry powder form were diluted in DMSO (30 mM stock). Serial dilutions of each Compound in DMSO (10 mM–0.1 mM) were performed in a 96-well polypropylene plate using a microtiter format. Culture media (200 μl) was added to the corresponding wells of a sterile 96-well round bottom plate. Diluted compound (2 μl) was added to the corresponding wells of the medial plate (final compound concentrations: 100 μM–1 μM). Culture media was removed from the corresponding wells of the 96-well plate containing the replicon cells and 150 μl diluted compound added. Media containing 1% DMSO and a serially diluted IFN were included on each plate. The cultures were incubated at 37° C. with 5% CO2 for 3 days. Cultures were observed visually for cytotoxicity or compound precipitation prior to RNA extraction described below.
Total cellular RNA was extracted by spin column technology (RNeasy 96, Qiagen) using the vacuum methodology according to the manufacturer's protocol. In brief, culture media was removed and 100 μl RLT lysis buffer containing 0.14M β-mercaptoethanol (β-ME) was added to each well. The plate was kept flat on the laboratory bench and shaken vigorously to lyse the cells. An equal volume of 70% ETOH was mixed with the lysate and added to the corresponding columns of the RNeasy 96-well plate. Vacuum was applied to draw the lysate through the filters. After ventilating the plate, buffer RW1 (1 mL) was drawn through each column. The waste tray was emptied and the filters washed twice with buffer RPE (1 mL/wash). After ventilating the tray, the RNeasy plate was removed and the bottom of the plate struck several times on a stack of paper towels to remove excess wash buffer. The waste tray was removed from the vacuum apparatus and the RNeasy 96-well plate dried by applying vacuum for 10 minutes. Total cellular RNA was eluted from the columns with two washes of 60 μl RNase-free water.
Relative quantitative multiplex RT-PCR was performed using TaqMan (TM) EZ RT Core Reagent kit (Perkin Elmer) according to the manufacturer's protocol (PE Applied Biosystems User Bulletin #2). Primer 061 (NT 61–82) and 139 (NT 139–158) amplifying a short region in the 5′ untranslated region of the HCV genome were utilized at 300 nM final concentrations. Probe #3 (NT 97–119) labeled with FAM reporter dye was utilized at 200 nM final concentration. Pre-developed human GAPDH primers and probe labeled with VIC reporter dye were obtained from PE Applied Biosystems (# 4310884E) and used according to the manufacturer's protocol. TM RT-PCR master mix was prepared containing the above primers/probe for both target RNA. Total cellular RNA (2 μl) was added to the reaction tubes of a 96-well optical plate that corresponded to the wells of the replicon culture plate. The final volume of each reaction was 50 μl. A standard curve was prepared from ten-fold serial dilutions of total cellular RNA extracated from 10^6 replicon cells and eluted in 30 μl RNase-free water. […]

SMILES	IC50
O=C(Cc1ccncc1)N/N=C/c1ccccc1OS(=O)(=O)c1ccc(C(F)(F)F)cc1 [Compound 1, 2-{(E)-[2-(2-pyridin-4-ylacetyl)-hydrazono]methyl}phenyl 4-(trifluoromethyl)benzenesulfonate]	5 to 50 µM
O=C(CCc1ccccc1)N/N=C/c1ccccc1OS(=O)(=O)c1ccc(C(F)(F)F)cc1 [Compound 2, 2-{(E)-[2-(3-phenylpropanoyl)-hydrazono]methyl}phenyl 4-(trifluoromethyl)benzenesulfonate]	< 5 µM
O=C(Cc1c[nH]c2ccccc12)N/N=C/c1ccccc1OS(=O)(=O)c1ccc(C(F)(F)F)cc1 [Compound 3, 2-((E)-{2-[2-(1H-indol-3-yl)-acetyl]hydrazono}methyl)phenyl 4-(trifluoromethyl)benzene-sulfonate]	< 5 µM
O=C(Cc1cccs1)N/N=C/c1ccccc1OS(=O)(=O)c1ccc(C(F)(F)F)cc1 [Compound 4, 2-{(E)-[2-(2-thien-2-ylacetyl)-hydrazono]methyl}phenyl 4-(trifluoromethyl)benzenesulfonate]	< 5 µM
O=C(Cc1c[nH]cn1)N/N=C/c1ccccc1OS(=O)(=O)c1ccc(C(F)(F)F)cc1 [Compound 5, 2-((E)-{2-[2-(1H-imidazol-4-yl)acetyl]hydrazono}methyl)phenyl 4-(trifluoromethyl)benzenesulfonate]	< 5 µM
O=C(Cc1cccnc1)N/N=C/c1ccccc1OS(=O)(=O)c1ccc(C(F)(F)F)cc1 [Compound 6, 2-{(E)-[2-(2-pyridin-3-ylacetyl)hydrazono]methyl}phenyl 4-(trifluoromethyl)benzenesulfonate]	< 5 µM
O=C(Cc1ccc(Cl)cc1)N/N=C/c1ccccc1OS(=O)(=O)c1ccc(C(F)(F)F)cc1 [Compound 7, 2-((E)-{2-[2-(4-chlorophenyl)acetyl]hydrazono}methyl)-phenyl 4-(trifluoromethyl)benzenesulfonate]	< 5 µM
O=C(Cc1ccc(F)cc1)N/N=C/c1ccccc1OS(=O)(=O)c1ccc(C(F)(F)F)cc1 [Compound 8, 2-((E)-{2-[2-(4-fluorophenyl)acetyl]hydrazono}methyl)-phenyl 4-(trifluoromethyl)benzenesulfonate]	< 5 µM
O=C(Cc1ccc(F)c(Cl)c1)N/N=C/c1ccccc1OS(=O)(=O)c1ccc(C(F)(F)F)cc1 [Compound 9, 2-((E)-{2-[2-(3-chloro-4-fluorophenyl)acetyl]hydrazono}methyl)-phenyl 4-(trifluoromethyl)benzenesulfonate]	< 5 µM
O=C(Cc1ccc(F)cc1Cl)N/N=C/c1ccccc1OS(=O)(=O)c1ccc(C(F)(F)F)cc1 [Compound 10, 2-((E)-{2-[2-(2-chloro-4-fluorophenyl)acetyl]hydrazono}methyl)-phenyl 4-(trifluoromethyl)benzenesulfonate]	< 5 µM
CN(C)c1ccc(CC(=O)N/N=C/c2ccccc2OS(=O)(=O)c2ccc(C(F)(F)F)cc2)cc1 [Compound 11, 2-[(E)-(2-{2-[4-(dimethylamino)phenyl]acetyl}hydrazono)-methyl]phenyl 4-(trifluoromethyl)benzenesulfonate]	< 5 µM
O=C(Cc1c(F)c(F)c(F)c(F)c1F)N/N=C/c1ccccc1OS(=O)(=O)c1ccc(C(F)(F)F)cc1 [Compound 12, 2-((E)-{2-[2-(pentafluorophenyl)acetyl]hydrazono}-methyl)phenyl 4-(trifluoromethyl)benzenesulfonate]	> 50 µM
O=C(Cc1ccc(F)c(C(F)(F)F)c1)N/N=C/c1ccccc1OS(=O)(=O)c1ccc(C(F)(F)F)cc1 [Compound 13, 2-[(E)-(2-{2-[4-fluoro-3-(trifluoromethyl)phenyl]acetyl}hydrazono)-methyl]phenyl 4-(trifluoromethyl)benzenesulfonate]	< 5 µM
O=C(Cc1ccc(C(F)(F)F)c(F)c1)N/N=C/c1ccccc1OS(=O)(=O)c1ccc(C(F)(F)F)cc1 [Compound 14, 2-[(E)-(2-{2-[3-fluoro-4-(trifluoromethyl)phenyl]acetyl}hydrazono)-methyl]phenyl 4-(trifluoromethyl)benzenesulfonate]	< 5 µM
COc1ccc(CC(=O)N/N=C/c2ccccc2OS(=O)(=O)c2ccc(C(F)(F)F)cc2)c(OC)c1OC [Compound 15, 2-((E)-{2-[2-(2,3,4-trimethoxyphenyl)acetyl]hydrazono}-methyl)phenyl 4-(trifluoromethyl)-benzenesulfonate]	< 5 µM
O=C(Cc1ccc(F)c(F)c1F)N/N=C/c1ccccc1OS(=O)(=O)c1ccc(C(F)(F)F)cc1 [Compound 16, 2-((E)-{2-[2-(2,3,4-trifluorophenyl)acetyl]hydrazono}methyl)-phenyl 4-(trifluoromethyl)benzenesulfonate]	< 5 µM
O=C(Cc1cc(F)c(F)cc1F)N/N=C/c1ccccc1OS(=O)(=O)c1ccc(C(F)(F)F)cc1 [Compound 17, 2-((E)-{2-[2-(2,4,5-trifluorophenyl)acetyl]hydrazono}methyl)-phenyl 4-(trifluoromethyl)benzenesulfonate]	< 5 µM
O=C(Cc1cc(F)c(F)c(F)c1)N/N=C/c1ccccc1OS(=O)(=O)c1ccc(C(F)(F)F)cc1 [Compound 18, 2-((E)-{2-[2-(3,4,5-trifluorophenyl)acetyl]hydrazono}methyl)-phenyl 4-(trifluoromethyl)benzenesulfonate]	< 5 µM
O=C(Cc1ccc(SC(F)(F)F)cc1)N/N=C/c1ccccc1OS(=O)(=O)c1ccc(C(F)(F)F)cc1 [Compound 19, 2-{(E)-[2-(2-{4-[(trifluoromethyl)thio]phenyl}acetyl)hydra-zono]methyl}phenyl 4-(trifluoromethyl)benzenesulfonate]	5 to 50 µM
O=C(Cc1cc(F)cc(F)c1F)N/N=C/c1ccccc1OS(=O)(=O)c1ccc(C(F)(F)F)cc1 [Compound 20, 2-((E)-{2-[2-(2,3,5-trifluorophenyl)acetyl]hydrazono}methyl)-phenyl 4-(trifluoromethyl)benzenesulfonate]	< 5 µM
O=C(Cc1cccc(OC(F)(F)F)c1)N/N=C/c1ccccc1OS(=O)(=O)c1ccc(C(F)(F)F)cc1 [Compound 21, 2-[(E)-(2-{2-[3-(trifluoromethoxy)phenyl]acetyl}hydrazono)-methyl]phenyl 4-(trifluoromethyl)benzenesulfonate]	< 5 µM
O=C(Cc1c(Cl)ccc(Cl)c1Cl)N/N=C/c1ccccc1OS(=O)(=O)c1ccc(C(F)(F)F)cc1 [Compound 22, 2-((E)-{2-[2-(2,3,6-trichlorophenyl)acetyl]hydrazono}methyl)-phenyl 4-(trifluoromethyl)benzenesulfonate]	> 50 µM
O=C(Cc1cc(F)cc(C(F)(F)F)c1)N/N=C/c1ccccc1OS(=O)(=O)c1ccc(C(F)(F)F)cc1 [Compound 23, 2-[(E)-(2-{2-[3-fluoro-5-(trifluoromethyl)phenyl]acetyl}hydrazono)-methyl]phenyl 4-(trifluoromethyl)benzenesulfonate]	< 5 µM
COc1cccc(CC(=O)N/N=C/c2ccccc2OS(=O)(=O)c2ccc(C(F)(F)F)cc2)c1OC [Compound 24, 2-((E)-{2-[2-(2,3-dimethoxyphenyl)acetyl]hydrazono}methyl)-phenyl 4-(trifluoromethyl)benzenesulfonate]	< 5 µM
O=C(Cc1ccccc1SC(F)(F)F)N/N=C/c1ccccc1OS(=O)(=O)c1ccc(C(F)(F)F)cc1 [Compound 25, 2-{(E)-[2-(2-{2-[(trifluoromethyl)thio]-phenyl}acetyl)hydrazono]methyl}phenyl 4-(trifluoromethyl)benzenesulfonate]	< 5 µM
CSc1ccc(CC(=O)N/N=C/c2ccccc2OS(=O)(=O)c2ccc(C(F)(F)F)cc2)cc1 [Compound 26, 2-[(E)-(2-{2-[4-(methylthio)phenyl]acetyl}hydrazono)methyl]-phenyl 4-(trifluoromethyl)benzenesulfonate]	< 5 µM
